Laboratory results as given in patent publication US8557776B2, “Compounds and methods for 18F labeled agents” (Bayer Pharma AG, priority 2006, dated 2013).
*1 amine or outer side, *2 acyl side, *3 side chain or, on linkers, in order; H or OH if unused. Where a SMILES comes first, the peptide text is derived from it. [ ]: non-standard residue; d: D form. The star is where a group is joined. γ4hIle = CC[C@H](C)[C@@H](CCC(=O)[*:2])N[*:1]; Benzoyl(3-CN,4-F) = N#Cc1cc(C(=O)*)ccc1F; Ava = NCCCCC(=O)O

What was measured:
[1] = system: human prostate cancer PC-3; assay: Biodistribution of F-18-Bombesin Analog in nude mice bearing human prostate cancer PC-3; assay type: in vivo
Method: Nude mice bearing human prostate cancer PC-3 were injected with 100 μl radioactive peptide dissolved in PBS containing 135 kBq per animal. For blocking 100 μg unlabeled gastrin-releasing peptide was co-injected. One hour post injection the animals were sacrificed and organs dissected for counting in a gamma-counter. Values are expressed as percent of the injected dose per gram organ weight.

Compound | Panc. % (Table 1) | Tumor/Tissue-Ratios T/Blood ([1]; 1 h Blocking: 100 μg unlabeled gastrin-releasing peptide co-injected) | Tumor/Tissue-Ratios T/Blood ([1]; 1 h post injection) | tumor-tissue ratio relative to that of 18F-choline (FCH) and 18F-FB-Lys-BN ([1]; FIG. 8, protocol as above) [time higher] | accumulation in tumor (in words) ([1]; PC-3 tumor, 1 h post injection) | specificity of targeting (in words) ([1]; blocking values low in tumor on co-injection of gastrin-releasing peptide)
3-CF3,4-F-Benzoyl-Arg-Ava-Gln-Trp-Ala-Val-NMeGly-His-Sta-Leu-NH2 (SEQ ID NO: 421) (RXQWAVGHXL; 3-CF3,4-F-benzoyl N-cap, Ava, NMeGly, Sta, C-amide) | 1,42% | – | – | – | – | –
CC[C@H](C)[C@@H](CCC(=O)N[C@@H](CC(C)C)C(N)=O)NC(=O)[C@H](Cc1c[nH]cn1)NC(=O)CNC(=O)[C@@H](NC(=O)[C@H](C)NC(=O)[C@H](Cc1c[nH]c2ccccc12)NC(=O)[C@H](CCC(N)=O)NC(=O)CCCCNC(=O)c1ccc(F)c(C#N)c1)C(C)C [F-18-Bombesin Analog] ({Benzoyl(3-CN,4-F)-Ava}-QWAVGH[γ4hIle]L-NH2; N-terminus assumed) | – | 1.57 ± 0.22 | 21.03 ± 11.92 | 2.5 | accumulates in tumor | specific
